Results as given in ChEMBL document CHEMBL4229373, “A comprehensive review of chalcone derivatives as antileishmanial agents” (Eur J Med Chem, 2018).
Converted amounts (≈) assume the structure as drawn. Each block holds one compound with its values, some of them ahead of it.

Key:
Leishmania donovani [1] = assay: Antileishmanial activity against Leishmania donovani L82 amastigotes infected in CD1 mouse peritoneal macrophages after 5 days by Giemsa staining based microscopic method; assay type: functional; details: L82, 120 h, read-out: ED50 (the source's name)
Leishmania donovani [2] = assay: Antileishmanial activity against Leishmania donovani MHOM/SD/00/1SD2D […] amastigotes infected in human peripheral blood monocyte-derived macrophages after 48 hrs by [3H]-thymidine incorporation assay; assay type: functional, organism-based
Leishmania amazonensis [3] = assay: Antileishmanial activity against Leishmania amazonensis LV/79 (MPRO/BR/72/M 1841) amastigotes infected in Balb/c mouse macrophages after 48 hrs by Giemsa staining based light microscopic method; assay type: functional; details: read-out: ED50 (the source's name)
Leishmania panamensis = assay: Antileishmanial activity against GFP fused Leishmania panamensis MHOM/CO/87/UA140 amastigotes infected in human […] cells after 72 hrs by flow cytometry; assay type: functional, organism-based; details: MHOM/CO/87/UA140, 72 h
Leishmania amazonensis [4] = assay: Antileishmanial activity against Leishmania amazonensis MHOM/BR/76/LTB-012 axenic amastigotes; assay type: functional, organism-based
Leishmania amazonensis [5] = assay: Antileishmanial activity against Leishmania amazonensis MHOM/BR/76/LTB-012 axenic amastigotes after 72 hrs by MTT dye based assay; assay type: functional, organism-based; details: MHOM/BR/76/LTB-012, 72 h
Leishmania donovani [6] = assay: Antileishmanial activity against DsRed-positive Leishmania donovani Dd8 amastigotes infected in mouse J774A1 cells after 48 hrs by flow cytometry; assay type: functional, organism-based; details: Dd8, J774.A1, 48 h
Leishmania donovani [7] = assay: Antileishmanial activity against Leishmania donovani amastigotes; assay type: functional, organism-based
Leishmania amazonensis [8] = assay: Antileishmanial activity against Leishmania amazonensis MHOM/BR/75/M-2904 strain Lb2904 amastigotes infected in mouse J774A1 cells after 48 hrs by Giemsa staining based microscopic method; assay type: functional, organism-based; details: MHOM/BR/75/M-2904 Lb290, J774.A1, 48 h
Leishmania major = assay: Antileishmanial activity against Leishmania major amastigotes infected in human peripheral blood monocyte-derived macrophages; assay type: functional, organism-based

EC50 (Leishmania donovani [1]): 1380 nM
SMILES: O=C(/C=C/c1ccc2ccccc2c1)c1ccc(O)cc1

EC50 (Leishmania donovani [1]): 1500 nM
SMILES: COc1ccc(C(=O)/C=C/c2cnc3ccccc3c2)c(OC)c1

EC50 (Leishmania donovani [1]): 1480 nM
SMILES: O=C(/C=C/c1ccccn1)c1ccc(O)cc1

IC50 (Leishmania donovani [2]): 650 nM
SMILES: C=CCOc1ccc(C(=O)/C=C/c2cccc(OC)c2OC)cc1

IC50 (Leishmania donovani [2]): 420 nM
SMILES: C=CCOc1ccc(C(=O)/C=C/c2ccc(OC)c(OC)c2)cc1

EC50 (Leishmania amazonensis [3]): 24 µg/mL (≈ 88.8 µM)
SMILES: COc1cc(O)c(C(=O)/C=C/c2ccccc2)c(O)c1

IC50 (Leishmania panamensis): 0.88 µg/mL (≈ 1.9 µM)
SMILES: O=C(/C=C/c1cccc(Nc2ccnc3cc(Cl)ccc23)c1)c1ccc(Br)cc1

IC50 (Leishmania panamensis): 0.79 µg/mL (≈ 1.88 µM)
SMILES: O=C(/C=C/c1cccc(Nc2ccnc3cc(Cl)ccc23)c1)c1ccc(Cl)cc1

IC50 (Leishmania panamensis): 10.2 µg/mL (≈ 16.2 µM)
SMILES: COc1ccc(/C=C/C(=O)c2ccc(OCCCCOc3cc(Cl)ccc3Oc3ccc(Cl)cc3Cl)cc2)cc1OC

IC50 (Leishmania panamensis): 13.5 µg/mL (≈ 21 µM)
SMILES: COc1ccc(/C=C/C(=O)c2ccc(OCCCCCOc3cc(Cl)ccc3Oc3ccc(Cl)cc3Cl)cc2)cc1OC

IC50 (Leishmania panamensis): 9.4 µg/mL (≈ 15.3 µM)
SMILES: COc1ccc(/C=C/C(=O)c2ccc(OCCCOc3cc(Cl)ccc3Oc3ccc(Cl)cc3Cl)cc2)cc1OC

IC50 (Leishmania amazonensis [4]): 61400 nM
SMILES: COc1cc(O)c(C(=O)/C=C/c2ccc(O)cc2)c(O)c1

SMILES: COc1cc(OC)c(C(=O)/C=C/c2ccccc2)c(O)c1OC
IC50 (Leishmania amazonensis [5]): 800 nM

IC50 (Leishmania donovani [6]): 14000 nM
SMILES: CC(=O)c1sc(N/N=C/c2cccc(/C=C/C(=O)c3ccco3)c2)nc1C

IC50 (Leishmania panamensis): 6.24 µg/mL (≈ 12.9 µM)
SMILES: COc1ccc(/C=C/C(=O)c2ccc(OCCCCOc3cccc4cccnc34)cc2)cc1OC

IC50 (Leishmania donovani [7]): 950 nM
SMILES: COc1ccc(OC)c(C(=O)/C=C/c2ccccn2)c1

IC50 (Leishmania amazonensis [8]): 2000 nM
SMILES: O=C(/C=C/c1cccc(S(=O)(=O)Nc2ccccc2)c1)c1ccccc1

IC50 (Leishmania amazonensis [8]): > 30000 nM
SMILES: COc1ccc(/C=C/C(=O)c2ccccc2)cc1 [4-METHOXY CHALCONE]

SMILES: COc1cc(O)cc(O)c1C(=O)/C=C/c1ccccc1 [CARDAMOMIN]
IC50 (Leishmania amazonensis [5]): 8000 nM

IC50 (Leishmania major): 0.5 µg/mL (≈ 1.48 µM)
SMILES: C=CC(C)(C)c1cc(/C=C/C(=O)c2ccc(O)cc2)c(OC)cc1O [LICOAGROCHACONE A]
